{
  "source": "paper PMC8165606",
  "about": "“Effects of Natural Monoamine Oxidase Inhibitors on Anxiety-Like Behavior in Zebrafish” (Frontiers in Pharmacology, 2021)",
  "key": {"zebrafish": {"tested_on": "zebrafish", "conditions": "for NTT time spent at the top and bottom: 20 min treatment, 5 min test", "method": "Adult male and female wild-type zebrafish were treated with the compounds for 20 min in a final volume of 50 ml in a 250-ml treatment beaker, one fish at a time. […] If not, the concentration was reduced until no obvious signs of tolerability problems (e.g., seizure-like tail or body movement) were observed.\nFollowing compound treatment in a 250 ml beaker, the fish were briefly rinsed in fresh system water, and then immediately transferred to a trapezoidal tank (14.6 cm height x 5.5 cm width x 27.9 cm top length and x 23.6 cm bottom length) filled with 1.5 L system water (Figure 1B). The behavior of the fish was monitored for the next 5 min by using the Noldus EthoVision XT system (Wageningen, Netherlands), with the camera placed approximately 1 m from the test tank (Figure 1C). The water-filled part of the tank (11.5 cm height) was virtually divided into top, center, and bottom (Figure 1B). The average time spent at the top and bottom portions of the tank was analyzed to determine the anxiety-like behavior of fish. […] The experimenters were blind to the test conditions. A minimum of 12 fish (6 females and 6 males) per condition were used for the study.\nThe behavioral findings were analyzed in 1 min bins using two-way repeated measures ANOVA with Dunnett post hoc analysis. The analyses were conducted by using GraphPad Prism v8.2.1 (GraphPad Software, San Diego, CA, United States)."}, "MAO B": {"target": "T1, MAO B (Homo sapiens, UniProt P27338)", "T1 sequence (P27338 1-520)": "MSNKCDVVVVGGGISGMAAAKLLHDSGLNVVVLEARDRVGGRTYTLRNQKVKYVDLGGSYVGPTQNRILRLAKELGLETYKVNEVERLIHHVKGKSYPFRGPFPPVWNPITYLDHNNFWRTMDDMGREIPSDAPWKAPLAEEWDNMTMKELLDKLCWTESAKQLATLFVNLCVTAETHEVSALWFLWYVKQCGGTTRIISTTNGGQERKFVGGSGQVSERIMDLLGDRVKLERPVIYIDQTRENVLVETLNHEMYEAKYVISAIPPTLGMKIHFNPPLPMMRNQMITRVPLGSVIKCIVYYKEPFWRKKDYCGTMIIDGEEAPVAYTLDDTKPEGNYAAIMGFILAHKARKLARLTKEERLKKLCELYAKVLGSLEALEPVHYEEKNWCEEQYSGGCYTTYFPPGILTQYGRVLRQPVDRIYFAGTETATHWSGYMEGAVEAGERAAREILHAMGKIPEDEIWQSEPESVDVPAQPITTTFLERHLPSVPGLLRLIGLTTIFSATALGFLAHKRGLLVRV", "experiment": "MAO-Glo two-step bioluminescent assay, MAO B", "assay_type": "biochemical", "conditions": "mean ± SEM; substrate 3 µM", "excerpt": "(§1) Fluostar Omega 96 Microplate reader (BMG LABTECH GmbH, Ortenberg, Germany) was used to measure the luminescent signal and to determine the IC50 (half maximal inhibitory concentration)."}, "zebrafish brain": {"tested_on": "zebrafish brain", "experiment": "Ex vivo bioavailability assay in fish brain (UPLC-HRMS or GC/MS)", "conditions": "relative brain level per 1 mg/L", "quoted_text": "The fish were decapitated at the level of the gills by using a surgical knife. The head was turned dorsal side down, and, soft tissue was removed from the ventral side of the skull using two forceps until the base of the skull was exposed. The skull was broken open, and the bone from the ventral side of the brain was removed. The brain was then placed in a microcentrifuge tube, weighed, snap-frozen in liquid nitrogen, and stored at −80°C until the analysis.\nBriefly, on the day of analysis, the brain samples were defrosted, resuspended in a methanol solution (2:1 [v/v] methanol:MilliQ water), and homogenized with vigorous agitation and ultrasonication (5 min each). The homogenate was centrifuged at 15,000 x rpm for 10 min, and the supernatant was analyzed by using a UPLC-Q Exactive Orbitrap-HRMS system (Thermo Fisher Scientific™, Bremen, Germany) for all compounds except for TMN, which was analyzed by gas chromatography/mass spectrometry (GC/MS) system. Chromatographic separation was achieved on a Synergi™ 4-µm Hydro-RP 80 Å, L.C. […]\nFor TMN, the Agilent GC/MS system (Agilent, Santa Clara, CA, United States) was used, because it is an apolar aromatic compound that could not be ionized for the detection by the UPLC-Q Exactive Orbitrap-HRMS system. […] The results were quantified using Agilent MS Workstation software (v6.9.3)."}, "[1]": {"tested_on": "norepinephrine transporter", "experiment": "Pilot in vitro norepinephrine transporter binding (data not shown)", "conditions": "pilot study in vitro"}, "serotonin receptor": {"tested_on": "serotonin receptor", "experiment": "Pilot in vitro serotonin receptor binding (data not shown)", "conditions": "pilot study in vitro"}, "MAO A": {"target": "T2, MAO A (Homo sapiens, UniProt P21397)", "T2 sequence (P21397 1-527)": "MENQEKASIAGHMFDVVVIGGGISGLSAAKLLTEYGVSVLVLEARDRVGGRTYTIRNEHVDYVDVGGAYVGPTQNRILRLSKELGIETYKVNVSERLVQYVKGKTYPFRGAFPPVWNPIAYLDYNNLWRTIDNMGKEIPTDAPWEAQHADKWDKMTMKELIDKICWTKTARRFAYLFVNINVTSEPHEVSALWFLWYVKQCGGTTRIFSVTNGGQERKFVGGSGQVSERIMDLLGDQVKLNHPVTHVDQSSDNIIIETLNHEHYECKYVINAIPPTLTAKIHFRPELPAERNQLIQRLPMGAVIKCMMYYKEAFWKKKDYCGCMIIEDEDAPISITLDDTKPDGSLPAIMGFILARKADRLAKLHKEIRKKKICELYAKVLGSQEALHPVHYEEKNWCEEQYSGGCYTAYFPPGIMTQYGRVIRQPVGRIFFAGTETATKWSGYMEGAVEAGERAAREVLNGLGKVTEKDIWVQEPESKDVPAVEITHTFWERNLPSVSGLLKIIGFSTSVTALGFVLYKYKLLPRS", "experiment": "MAO-Glo two-step bioluminescent assay, MAO A", "assay_type": "biochemical", "conditions": "for Selectivity between MAO A and B: present study", "excerpt": "as §1"}, "MAO-A and MAO-B [2]": {"tested_on": "MAO-A and MAO-B", "conditions": "cited from earlier work"}, "MAO-A and MAO-B [3]": {"tested_on": "MAO-A and MAO-B", "parameters": "method as in Fisar et al., 2010", "conditions": "crude pig brain mitochondrial fractions ref Fisar et al., 2010; cited from earlier work"}, "[4]": {"conditions": "two highest concentrations tested"}, "[5]": {"conditions": "all concentrations tested, throughout the test period"}},
  "note": "Counter-ions that a name gives are not always drawn. Like-named read-outs stand apart in the source and are kept apart here.",
  "data": [
    {"smiles": "C#CCN(C)CCCOc1ccc(Cl)cc1Cl", "note": "[Clorgyline, clorgyline hydrochloride, reference compound]", "values": [
      {"measurement": "NTT time spent at the top and bottom", "setting": "zebrafish; 10 mg/L", "result": "no effect"},
      {"measurement": "NTT time spent at the top and bottom", "setting": "zebrafish; 30 mg/L", "result": "significantly increasing it only during the last 2 min"},
      {"measurement": "NTT time spent at the top and bottom", "setting": "zebrafish; 100 mg/L", "result": "increasing the time spent at the top for almost the entire test period"},
      {"measurement": "NTT total distance traveled", "setting": "zebrafish; [4]", "result": "significantly reduced"},
      {"measurement": "Tolerability in zebrafish", "setting": "zebrafish; zebrafish, in vivo", "result": "borderline of tolerability"}
    ]},
    {"smiles": "Cc1nccc2c1[nH]c1ccccc12", "note": "[Harmane]", "values": [
      {"measurement": "IC50", "setting": "MAO B", "result": "> 100", "unit": "µM"},
      {"measurement": "Brain level relative to the rest of compounds tested", "setting": "zebrafish brain", "result": "approximately 10 fold"},
      {"measurement": "Norepinephrine transporter binding activity", "setting": "[1]", "result": "~10", "unit": "µM"},
      {"measurement": "Serotonin receptor binding activity", "setting": "serotonin receptor", "result": "~10", "unit": "µM"},
      {"measurement": "IC50", "setting": "MAO A", "result": "50 ± 30", "unit": "nM"},
      {"measurement": "MAO-A selectivity over MAO-B", "setting": "MAO A; from IC50 values", "result": "> 2,000 fold"},
      {"measurement": "Selectivity between MAO A and B", "setting": "MAO A", "result": "only MAO A selective inhibitor"},
      {"measurement": "NTT time spent at the top and bottom", "setting": "zebrafish; 1 mg/L", "result": "increased the time spent at the top and decreased the time spent at the bottom during the first minute"},
      {"measurement": "NTT time spent at the top and bottom", "setting": "zebrafish; 3 mg/L", "result": "increased the time spent at the top and decreased the time spent at the bottom during the first minute"},
      {"measurement": "NTT time spent at the top and bottom", "setting": "zebrafish; 10 mg/L", "result": "no effect"},
      {"measurement": "NTT total distance traveled", "setting": "zebrafish; [5]", "result": "significantly reduced"},
      {"measurement": "NTT freezing time", "setting": "zebrafish; highest concentration tested", "result": "increased the freezing time during the first 2 min"}
    ]},
    {"smiles": "c1ccc2c(c1)[nH]c1cnccc12", "note": "[Norharmane, norharmane]", "values": [
      {"measurement": "Norepinephrine transporter binding activity", "setting": "[1]", "result": "~10", "unit": "µM"},
      {"measurement": "Serotonin receptor binding activity", "setting": "serotonin receptor", "result": "~10", "unit": "µM"},
      {"measurement": "NTT time spent at the top and bottom", "setting": "zebrafish; 0.3 mg/L", "result": "no effect"},
      {"measurement": "NTT time spent at the top and bottom", "setting": "zebrafish; 1 mg/L", "result": "significant effect between 2 and 3 min of the test"},
      {"measurement": "NTT time spent at the top and bottom", "setting": "zebrafish; 3 mg/L", "result": "increased the time spent at the top and decreased the time spent at the bottom during the last 2 min"},
      {"measurement": "NTT total distance traveled", "setting": "zebrafish; highest concentration tested", "result": "significantly reduced"}
    ]},
    {"smiles": "C#CCN(C)Cc1ccccc1", "note": "[Pargyline, pargyline hydrochloride]", "values": [
      {"measurement": "Difference in Ki values of MAO-A and MAO-B", "setting": "MAO-A and MAO-B [2]; recombinant human enzymes ref Oh et al., 2020", "result": "> 100", "unit": "fold"},
      {"measurement": "Difference in Ki values of MAO-A and MAO-B", "setting": "MAO-A and MAO-B [2]; recombinant human enzymes ref Takao et al., 2019", "result": 21, "unit": "fold"},
      {"measurement": "Difference between the Ki values of MAO-A and MAO-B", "setting": "MAO-A and MAO-B [3]", "result": 1.4, "unit": "fold"},
      {"measurement": "NTT time spent at the top and bottom", "setting": "zebrafish; 10 mg/L", "result": "only an anxiogenic-like effect, but only for the first 1 min of the test"},
      {"measurement": "NTT total distance traveled", "setting": "zebrafish; [4]", "result": "significantly reduced"}
    ]},
    {"smiles": "c1ccc2c(c1)CCNC2", "note": "[TIQ, 1,2,3,4-tetrahydroisoquinoline]", "values": [
      {"measurement": "NTT time spent at the top and bottom", "setting": "zebrafish; 10 mg/L", "result": "no effect"},
      {"measurement": "NTT time spent at the top and bottom", "setting": "zebrafish; 30 mg/L", "result": "generally increased and decreased the time spent at the top and bottom, respectively"},
      {"measurement": "NTT time spent at the top and bottom", "setting": "zebrafish; 100 mg/L", "result": "generally increased and decreased the time spent at the top and bottom, respectively"},
      {"measurement": "Effect on general movement in NTT", "setting": "zebrafish; 10, 30 and 100 mg/L", "result": "no observable effect on general movement"}
    ]},
    {"smiles": "CC1=C(C)C(=O)c2cc(C)ccc2C1=O", "note": "[TMN, 2,3,6-trimethyl-1,4-naphtoquinone]", "values": [
      {"measurement": "IC50", "setting": "MAO B", "result": "7.14 ± 2.29", "unit": "µM"},
      {"measurement": "IC50", "setting": "MAO A; mean ± SEM, substrate 20 µM, read-out: MAO a IC50", "result": "1140 ± 740", "unit": "nM"},
      {"measurement": "Selectivity between MAO A and B", "setting": "MAO A", "result": "no selectivity"},
      {"measurement": "NTT time spent at the top and bottom", "setting": "zebrafish; 10 mg/L", "result": "only an anxiogenic-like effect during the last couple of minutes"},
      {"measurement": "NTT time spent at the top and bottom", "setting": "zebrafish; 30 mg/L", "result": "mix of both anxiolytic- and anxiogenic-like behaviors"},
      {"measurement": "NTT total distance traveled", "setting": "zebrafish; [5]", "result": "significantly reduced"},
      {"measurement": "Tolerability in zebrafish", "setting": "zebrafish; highest concentrations tested, relatively high number of fish with long freezing", "result": "borderline of tolerability"},
      {"measurement": "NTT freezing time", "setting": "zebrafish; [4]", "result": "increased the freezing time"}
    ]},
    {"smiles": "O=C1CC2(CCCC2)CC(=O)N1CCCCN1CCN(c2ncccn2)CC1", "note": "[buspirone, Buspirone hydrochloride, reference compound]", "values": [
      {"measurement": "NTT time spent at the top and bottom, treatment effect", "setting": "zebrafish; 10, 30 and 100 mg/L, two-way ANOVA", "result": "significant treatment effect"},
      {"measurement": "Tolerability in zebrafish", "setting": "zebrafish; zebrafish, in vivo", "result": "borderline of tolerability"}
    ]}
  ]
}
